Measurements published in patent publication US7125902B2, “Methods, compounds, and diagnostics for cancer treatment” (priority 2004, dated 2006).

How the values were obtained:
[1] = system: C6 (Rat Glialtumor Cell or CCL-107) Cell Line; experiment: MTT colorimetric assay for cellular viability on C6 cells; assay type: cell-based; conditions: 48-h incubation
Method: Cell lines (C6 and Hep G2) were obtained from the Bioresource Collection and Research Center. All cell culture media and supplements were purchased from Invitrogen, Co. (GIBCO™, Gland Island, N.Y.) unless otherwise specified. All cells were grown in a humid atmosphere of 95% air and 5% CO2 at 37° C. Cell lines were maintained under standard conditions in culture media recommended by the American Type Culture Collection (ATCC), unless otherwise specified. C6 cells were grown in 82.5% Ham's F-10 medium, 15% horse serum and 2.5% FBS. Hep G2 were cultured in 90% MEM (Eagle) with non-essential amino acids and Earle's BSS amd 10% FBS.
All compounds were tested for inhibition of anchorage-dependent tumor cell growth using MTT assay. All compounds were individually solubilized in DMSO and diluted into appropriate growth medium at 2-fold desired final assay concentration. In assays, cells were seeded into 96-well plates and allowed to adhere for 24 h before drugs were introduced. Following a 48-h incubation, compounds and medium were removed by flicking, and each well was treated with 100 μl of 500 μg/ml MTT [3-(4,5-dimethylthiazol-2-yl)-2,5-diphenyltetrazolium bromide] in culture medium. Following a 4-h incubation period to allow metabolism of MTT by mitochondrial dehydrogenases of viable cells to form an insoluble formazan product, the crystals were dissolved in 100 μL of acid-SDS (0.01 N HCl in 10% SDS) by incubating the plate overnight. Absorbance, as a measure of cell viability, was read the following day in an ELISA plate reader at a wavelength of 550 nm. IC50 values were obtained by a linear regression analysis of percentage absorbance vs. log drug concentration.

[2] = system: Male ICR mice; experiment: Acute toxicity study, determination of LD50 values; assay type: in vivo; conditions: for LD50 / Survival at 2,000 mg/Kg: male ICR mice; for LD50: single intraperitoneal injection, observed for three days; for Acute symptoms observed: mouse, in vivo, ip; for Survival at 2,000 mg/Kg: i.p., 2,000 mg/Kg, three-day observation
Method: (§1) Leflunomide, its metabolite (A77 1726), and several isoxazole derivatives were chosen for the acute toxicity study. Male ICR mice were used for the intraperitoneal injection of each compound at different doses according to the following procedure: Small male ICR mice are chosen, each weighing 17–23 grams. They are equally classified at random into individual groups, 3–5 mice per group. A predetermined dose of each selected compound in minimum DMSO/liquid paraffin is injected once intraperitoneally to mice in each group. Toxic reaction is observed for three days, then the acute half lethal dose (LD50) is determined.

[3] = Acute toxicity study, determination of LD50 values; assay type: in vivo; conditions: male, ICR, mouse, in vivo, ip
Method: as §1

[4] = system: HT29 (adenocarcinoma of the colon); experiment: SRB cell proliferation assay on HT-29 cells; assay type: cell-based, human; conditions: for Cell viability, Reading (avg of 3): HT-29, SRB reading at 515 nm, 5d exposure
Method: The cell lines used were HT29 (adenocarcinoma of the colon). The tumor cells were grown at 37° C. in a humidified atmosphere (5% CO2) as monolayer cultures in RPMI 1640 medium supplemented with 10% FCS. Cells were trypsinized upon passage and maintained routinely.
UTL-5b and UTL-5 were dissolved in DMSO as 4 mM stock solutions and then further diluted in 1% carboxymethyl cellulose.
The SRB assay is routinely employed to measure cell proliferation by the US-NCI 60 cell line screen. Exponentially growing cells were harvested by trypsination, counted and seeded into 96 well plates (2.000 cells/well). […] Total protein mass was determined after 5d of continuous drug exposure by addition of Sulforhodamine B (0.4%) solution. Readings were read at 515 nm, as cell viability, and IC50 values were estimated based on the results.

| Compound | IC50 [1] [µM] | LD50 [2] | Acute symptoms observed [2] | also measured |
| --- | --- | --- | --- | --- |
| C/C(O)=C(\C#N)C(=O)Nc1ccc(C(F)(F)F)cc1 [A77 1726, reference compound] | 0.159 | 200 mg/kg | Cyanosis and deep necrosis |  |
| Cc1oncc1C(=O)Nc1ccc(C(F)(F)F)cc1 [Leflunomide, N-(4-trifluoromethylphenyl)-4-carboxamidyl-5-methylisoxazole, reference compound] |  |  | Cyanosis and deep necrosis | IC50 ([1]; Rattus norvegicus): 0.162 µM; LD50 at 3 days [3]: 250 mg/kg |
| Cc1cc(C(=O)Nc2ccccc2)no1 [UTL-5a] | 1.37 | >2,000 mg/Kg | agitation | Survival at 2,000 mg/Kg [2]: all mice were alive |
| Cc1cc(C(=O)Nc2cccc(Cl)c2)no1 [UTL-5c] | 0.163 |  |  |  |
| Cc1cc(C(=O)Nc2ccc(Cl)cc2)no1 [UTL-5d] | 0.81 | 1,800 mg/Kg |  | Activity in human colon cancer cell line HT29 (in words) ([4]; HT29, SRB assay): very good activity; Cell viability, Reading (avg of 3) ([4]; Conc. 0.001 μM): 1.238; Cell viability, Reading (avg of 3) ([4]; Conc. 0.002 μM): 1.014; Cell viability, Reading (avg of 3) ([4]; Conc. 0.01 μM): 0.886; Cell viability, Reading (avg of 3) ([4]; Conc. 0.05 μM): 0.914; Cell viability, Reading (avg of 3) ([4]; Conc. 0.1 μM): 0.864; Cell viability, Reading (avg of 3) ([4]; Conc. 0.5 μM): 0.893; Cell viability, Reading (avg of 3) ([4]; Conc. 1 μM): 0.436; Cell viability, Reading (avg of 3) ([4]; Conc. 10 μM): 0.314; Cell viability, Reading (avg of 3) ([4]; Conc. 50 μM): 0.164; Cell viability, Reading (avg of 3) ([4]; Conc. 100 μM): 0.13; IC50 ([4]; HT-29 cells, SRB assay, 5d continuous exposure, estimated from readings): 0.7 µM |
| Cc1cc(C(=O)Nc2cccc(C(F)(F)F)c2)no1 [UTL-5e] | 0.2 |  |  |  |
| Cc1cc(C(=O)Nc2ccc(C(F)(F)F)cc2)no1 [UTL-5f] | 0.17 |  |  |  |
| Cc1cc(C(=O)Nc2ccc(Cl)cc2Cl)no1 [UTL-5g] | 0.18 | >2,000 mg/Kg | agitation | Survival at 2,000 mg/Kg [2]: all mice were alive |
| COc1ccc(NC(=O)c2cc(C)on2)cc1 [UTL-5h] | 0.35 |  |  |  |
| COc1cc(NC(=O)c2cc(C)on2)cc(OC)c1OC [UTL-5i] | 1.18 |  |  |  |
| Cc1cc(C(=O)Nc2ccc(C(=O)O)cc2)no1 [UTL-5j] | 0.19 | >2,000 mg/Kg | agitation | Survival at 2,000 mg/Kg [2]: all mice were alive |
| Cc1cc(C(=O)Nc2ccc(F)cc2)no1 [UTL-5k] | > 1000 |  |  |  |
| CCOC(=O)CC[C@H](NC(=O)c1ccc(NC(=O)c2cc(C)on2)cc1)C(=O)OCC [UTL-5l] | 0.16 |  |  |  |
